Experimental data from patent US6534447B1, “Herbicidal pyridine compounds” (BASF Aktiengesellschaft, priority 1999, dated 2003).

Experiments:
Format in all cases: in vivo
[1] = system: Matricaria inodora (MATIN, mayweed); assay: Post-emergence herbicidal evaluation; settings: 3 weeks after treatment
How it was run: (§1)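 Acetone solutions of test compound were diluted with water and sprayed onto plants at rates equivalent to about 0.025 to 0.4 kg per hectare per pot. Plants were then kept on greenhouse benches under conventional care and rated from 3 weeks after treatment on a 0 (as untreated control) to 9 (death) scale.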

[2] = system: Echinochloa grus galli (ECHCG, barnyard grass); assay: Post-emergence herbicidal evaluation; settings: 3 weeks after treatment
How it was run: as §1

[3] = system: Galium aparine (GALAP, cleaver); assay: Post-emergence herbicidal evaluation; settings: 3 weeks after treatment
How it was run: as §1

[4] = system: Ipomoea hederacea (IPOHE, morning glory); assay: Post-emergence herbicidal evaluation; settings: 3 weeks after treatment
How it was run: as §1

[5] = system: Abutilon theophrasti (ABUTH, velvetleaf); assay: Post-emergence herbicidal evaluation; settings: 3 weeks after treatment
How it was run: as §1

[6] = system: Setaria viridis (SETVI, green foxtail); assay: Post-emergence herbicidal evaluation; settings: 3 weeks after treatment
How it was run: as §1

[7] = system: Stellaria media (STEME, chickweed); assay: Post-emergence herbicidal evaluation; settings: 3 weeks after treatment
How it was run: as §1

[8] = system: Dolium multiflorum (LOLMU, ryegrass); assay: Post-emergence herbicidal evaluation; settings: rate 0.100 kg/ha, 3 weeks after treatment
How it was run: as §1

[9] = system: Alopecurus myosuroides (ALOMY, black grass); assay: Post-emergence herbicidal evaluation; settings: 3 weeks after treatment
How it was run: as §1

Zea mays (ZEAMX, maize) = assay: Pre-emergence herbicidal evaluation (crop); settings: 3 weeks after treatment
How it was run: (§2)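 Seeds mixed with potting soil and sown on about one inch of soil per pot, then sprayed with aqueous acetone solution of test compound at the equivalent of about 0.025 to 0.4 kg per hectare. Pots kept under standard greenhouse care and visually rated from 3 weeks after treatment.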

[10] = system: Triticum aestivum (TRZAW, winter wheat); assay: Pre-emergence herbicidal evaluation (crop); settings: 3 weeks after treatment
How it was run: as §2

[11] = system: Glycine max (GLXMA, soyabeans); assay: Pre-emergence herbicidal evaluation (crop); settings: 3 weeks after treatment
How it was run: as §2

eight weed species = assay: Pre-emergence herbicidal evaluation, overall weed control; settings: crop selective dose of 0.1 kg/ha
Source text: The pre-emergence herbicidal activity of the compounds of the present invention is exemplified by the following test in which the seeds of a variety of monocotyledonous and dicotyledonous plants are seperately mixed with potting soil and planted on top of approximately one inch of soil in separate post. After planting, the pots are sprayed with the selected aqueous acetone solution. containing test compound in sufficient quantity to provide the equivalent of about 0.025 to 0.4 kg per hectare of test compound per pot. The treated pots are then placed on greenhouse benches, watered and cared for in accordance with conventional greenhouse procedures. From 3 weeks after treatment, the tests are terminated and each pot is examined and rated according to the rating system set forth below.
Thus, there is evidence for the good potential of the compounds of the invention for excellent cross spectrum control of both grasses and broadleaf weeds in key crops.

[12] = system: Matricaria inodora (MATIN, mayweed); assay: Pre-emergence herbicidal evaluation; settings: 3 weeks after treatment
How it was run: as §2

[13] = system: Echinochloa grus galli (ECHCG, barnyard grass); assay: Pre-emergence herbicidal evaluation; settings: 3 weeks after treatment
How it was run: as §2

[14] = system: Galium aparine (GALAP, cleaver); assay: Pre-emergence herbicidal evaluation; settings: 3 weeks after treatment
How it was run: as §2

[15] = system: Ipomoea hederacea (IPOHE, morning glory); assay: Pre-emergence herbicidal evaluation; settings: 3 weeks after treatment
How it was run: as §2

[16] = system: Abutilon theophrasti (ABUTH, velvetleaf); assay: Pre-emergence herbicidal evaluation; settings: 3 weeks after treatment
How it was run: as §2

[17] = system: Setaria viridis (SETVI, green foxtail); assay: Pre-emergence herbicidal evaluation; settings: 3 weeks after treatment
How it was run: as §2

[18] = system: Stellaria media (STEME, chickweed); assay: Pre-emergence herbicidal evaluation; settings: 3 weeks after treatment
How it was run: as §2

[19] = system: Alopecurus myosuroides (ALOMY, black grass); assay: Pre-emergence herbicidal evaluation; settings: 3 weeks after treatment
How it was run: as §2

weeds = assay: Post-emergence herbicidal evaluation, overall weed control; settings: down to the lowest dose of 0.025 kg/ha
Method: These acetone solutions are diluted with water and the resulting formulations applied at dosage levels equivalent of about 0.025 to 0.4 kg per hectare of test compound per pot. After spraying the plants are placed on greenhouse benches and are cared for in the usual manner, commensurate with conventional greenhouse practices. From 3 weeks after treatment, the seedling plants are examined and rated according to the rating system provided above. A rating 0 indicates growth as untreated control, a rating 9 indicates death.

Q: What does the source list for `Cc1cc(OCCCSC(F)(F)F)nc(Oc2ccnc(C(F)(F)F)c2)c1` [Example 53]?
A: MATIN rating ([1]; rate 0.025 kg/ha): 6 (6 - Herbicidal effect); MATIN rating ([1]; rate 0.100 kg/ha): 8 (8 - Approaching complete kill); MATIN rating ([1]; rate 0.400 kg/ha): 8 (8 - Approaching complete kill); ECHCG rating ([2]; rate 0.025 kg/ha): 9 (9 - Complete kill); ECHCG rating ([2]; rate 0.100 kg/ha): 9 (9 - Complete kill); ECHCG rating ([2]; rate 0.400 kg/ha): 9 (9 - Complete kill); GALAP rating ([3]; rate 0.025 kg/ha): 6 (6 - Herbicidal effect); GALAP rating ([3]; rate 0.100 kg/ha): 9 (9 - Complete kill); GALAP rating ([3]; rate 0.400 kg/ha): 9 (9 - Complete kill); IPOHE rating ([4]; rate 0.025 kg/ha): 9 (9 - Complete kill); IPOHE rating ([4]; rate 0.100 kg/ha): 9 (9 - Complete kill); IPOHE rating ([4]; rate 0.400 kg/ha): 9 (9 - Complete kill); ABUTH rating ([5]; rate 0.025 kg/ha): 8 (8 - Approaching complete kill); ABUTH rating ([5]; rate 0.100 kg/ha): 9 (9 - Complete kill); ABUTH rating ([5]; rate 0.400 kg/ha): 9 (9 - Complete kill); SETVI rating ([6]; rate 0.025 kg/ha): 9 (9 - Complete kill); SETVI rating ([6]; rate 0.100 kg/ha): 9 (9 - Complete kill); SETVI rating ([6]; rate 0.400 kg/ha): 9 (9 - Complete kill); STEME rating ([7]; rate 0.025 kg/ha): 8 (8 - Approaching complete kill); STEME rating ([7]; rate 0.100 kg/ha): 9 (9 - Complete kill); STEME rating ([7]; rate 0.400 kg/ha): 9 (9 - Complete kill); LOLMU rating [8]: 8 (8 - Approaching complete kill); ALOMY rating ([9]; rate 0.025 kg/ha): 6 (6 - Herbicidal effect); ALOMY rating ([9]; rate 0.100 kg/ha): 8 (8 - Approaching complete kill); ALOMY rating ([9]; rate 0.400 kg/ha): 9 (9 - Complete kill); ZEAMX rating (Zea mays (ZEAMX, maize); rate 0.025 kg/ha): 2 (2 - Slight effect); ZEAMX rating (Zea mays (ZEAMX, maize); rate 0.100 kg/ha): 4 (4 - Injury); ZEAMX rating (Zea mays (ZEAMX, maize); rate 0.400 kg/ha): 4 (4 - Injury); TRZAW rating ([10]; rate 0.025 kg/ha): 1 (1 - Trace effect); TRZAW rating ([10]; rate 0.100 kg/ha): 2 (2 - Slight effect); TRZAW rating ([10]; rate 0.400 kg/ha): 4 (4 - Injury); GLXMA rating ([11]; rate 0.025 kg/ha): 4 (4 - Injury); GLXMA rating ([11]; rate 0.100 kg/ha): 4 (4 - Injury); GLXMA rating ([11]; rate 0.400 kg/ha): 6 (6 - Herbicidal effect); weed control (in words) (eight weed species): complete control; MATIN rating ([12]; rate 0.025 kg/ha): 8 (8 - Approaching complete kill); MATIN rating ([12]; rate 0.100 kg/ha): 8 (8 - Approaching complete kill); MATIN rating ([12]; rate 0.400 kg/ha): 9 (9 - Complete kill); ECHCG rating ([13]; rate 0.025 kg/ha): 7 (7 - Good herbicidal effect); ECHCG rating ([13]; rate 0.100 kg/ha): 8 (8 - Approaching complete kill); ECHCG rating ([13]; rate 0.400 kg/ha): 9 (9 - Complete kill); GALAP rating ([14]; rate 0.025 kg/ha): 4 (4 - Injury); GALAP rating ([14]; rate 0.100 kg/ha): 8 (8 - Approaching complete kill); GALAP rating ([14]; rate 0.400 kg/ha): 8 (8 - Approaching complete kill); IPOHE rating ([15]; rate 0.025 kg/ha): 8 (8 - Approaching complete kill); IPOHE rating ([15]; rate 0.100 kg/ha): 8 (8 - Approaching complete kill); IPOHE rating ([15]; rate 0.400 kg/ha): 9 (9 - Complete kill); ABUTH rating ([16]; rate 0.025 kg/ha): 9 (9 - Complete kill); ABUTH rating ([16]; rate 0.100 kg/ha): 9 (9 - Complete kill); ABUTH rating ([16]; rate 0.400 kg/ha): 9 (9 - Complete kill); SETVI rating ([17]; rate 0.025 kg/ha): 8 (8 - Approaching complete kill); SETVI rating ([17]; rate 0.100 kg/ha): 8 (8 - Approaching complete kill); SETVI rating ([17]; rate 0.400 kg/ha): 8 (8 - Approaching complete kill); STEME rating ([18]; rate 0.025 kg/ha): 9 (9 - Complete kill); STEME rating ([18]; rate 0.100 kg/ha): 9 (9 - Complete kill); STEME rating ([18]; rate 0.400 kg/ha): 9 (9 - Complete kill); ALOMY rating ([19]; rate 0.025 kg/ha): 8 (8 - Approaching complete kill); ALOMY rating ([19]; rate 0.100 kg/ha): 8 (8 - Approaching complete kill); ALOMY rating ([19]; rate 0.400 kg/ha): 8 (8 - Approaching complete kill); activity against weeds (in words) (weeds): high levels of activity
